Data taken from patent US9181193B2, “Indenoquinolone compound, preparation method and use thereof” (Second Military Medical University, PLA, priority 2010, dated 2015).

Columns and labels:
Type in all cases: cell-based
[1] = system: HepG2 (human hepatoma cells); assay: MTT in vitro anti-tumor activity test, HepG2
[2] = system: A549 (human lung cancer cells); assay: MTT in vitro anti-tumor activity test, A549
[3] = system: Colo205 (human colon cancer cells); assay: MTT in vitro anti-tumor activity test, Colo205
[4] = system: MDA-MB-435 (human breast cancer cells); assay: MTT in vitro anti-tumor activity test, MDA-MB-435
[5] = HepG2 human hepatoma cells, MTT, 72 h
[6] = A549 human lung cancer cells, MTT, 72 h
[7] = Colo205 human colon cancer cells, MTT, 72 h
[8] = MDA-MB-435, 100 μg/mL, MTT, 72 h
[9] = MDA-MB-435 human breast cancer cells, MTT, 72 h
[10] = MTT assay, 72 h incubation, HepG2 cells
[11] = inhibition at 100 μg/mL, MTT assay, 72 h, HepG2 cells
[12] = MTT assay, 72 h incubation, A549 cells
[13] = inhibition at 100 μg/mL, MTT assay, 72 h, A549 cells
[14] = MTT assay, 72 h incubation, Colo205 cells
[15] = inhibition at 100 μg/mL, MTT assay, 72 h, Colo205 cells
[16] = MTT assay, 72 h incubation, MDA-MB-435 cells
[17] = inhibition at 100 μg/mL, MTT assay, 72 h, MDA-MB-435 cells

SMILES | HepG2 100 μg/mL IC % ([1]; HepG2, 100 μg/mL, MTT, 72 h) [%] | HepG2 IC50 [1, 5] [µg/mL] | A549 100 μg/mL IC % ([2]; A549, 100 μg/mL, MTT, 72 h) [%] | A549 IC50 [2, 6] [µg/mL] | Colo205 100 μg/mL IC % ([3]; Colo205, 100 μg/mL, MTT, 72 h) [%] | Colo205 IC50 [3, 7] [µg/mL] | MDA-MB-435 100 μg/mL IC % [4, 8] [%] | MDA-MB-435 IC50 [4, 9] [µg/mL] | HepG2 IC50 [1, 10] [µg/mL] | HepG2 100 μg/mL IC % [1, 11] [%] | A549 IC50 [2, 12] [µg/mL] | A549 100 μg/mL IC % [2, 13] [%] | Colo205 IC50 [3, 14] [µg/mL] | Colo205 100 μg/mL IC % [3, 15] [%] | MDA-MB-435 IC50 [4, 16] [µg/mL] | MDA-MB-435 100 μg/mL IC % [4, 17] [%]
CN(C)CCOc1nc2ccccc2c2c1-c1ccc(Cl)cc1C2=O [Compound 7] | 100 | 22.95 | 90.29 | 15.12 | 100 | 6.46 | 100 | 4.91 |  |  |  |  |  |  |  | 
O=C1c2cc(Cl)ccc2-c2c1c1ccccc1n(CCn1ccnc1)c2=O [Compound 38] |  |  |  |  |  |  |  |  | 22.97 | 88.62 | 13.16 | 100 | 18.77 | 95.16 | 9.37 | 100
COc1ccc2c(c1)-c1c(OCCN(C)C)nc3ccc(OC)cc3c1C2=O [Compound 17] | 100 | 10.31 | 85.30 | 18.26 | 100 | 6.70 | 100 | 4.98 |  |  |  |  |  |  |  | 
COc1ccc2c(c1)-c1c(c3cc(OC)ccc3n(CCN(C)C)c1=O)C2=O [Compound 42] |  |  |  |  |  |  |  |  | 3.77 | 100 | 8.03 | 87.75 | 1.27 | 100 | 3.12 | 100
O=C1c2cc(Cl)ccc2-c2c1c1ccccc1n(CCN1CCCC1)c2=O [Compound 37] |  |  |  |  |  |  |  |  | >100 | 24.95 | 58.58 | 61.64 | 36.76 | 69.37 | 41.01 | 70.26
COc1cc2c3c(c(=O)n(CCn4ccnc4)c2cc1OC)-c1ccc(Cl)cc1C3=O [Compound 48] |  |  |  |  |  |  |  |  | 60.46 | 62.67 | 23.76 | 79.61 | 11.75 | 89.59 | 12.36 | 100
COc1cc2c3c(c(=O)n(CCCN(C)C)c2cc1OC)-c1ccc(Cl)cc1C3=O [Compound 50] |  |  |  |  |  |  |  |  | 3.71 | 36.98 | 3.59 | 85.91 | 15.89 | 76.93 | 1.12 | 89.80
O=C1c2cc(Cl)ccc2-c2c(OCCN3CCCCC3)nc3ccccc3c21 [Compound 11] | 63.27 | 55.62 | 69.84 | 32.73 | 69.24 | 39.33 | 69.43 | 44.76 |  |  |  |  |  |  |  | 
COc1ccc2c(c1)c1c(c(=O)n2CCn2ccnc2)-c2ccc(Br)cc2C1=O [Compound 43] |  |  |  |  |  |  |  |  | >100 | 9.73 | >100 | 4.26 | 34.21 | 87.42 | 83.60 | 53.07
